Source: article PMC3761967 (Bioorganic & medicinal chemistry, 2012)
Where no end group is shown, it is not given here. The star is where a group is joined. Dansyl = CN(C)c1cccc2c(S(=O)(=O)*)cccc12

Experiments:
wild FTase = settings: peptide substrate; cited from earlier work
[1] = mild basic conditions (pH=7.5), hydrolysed to dicarboxylate anion 2; ref 10a; cited from earlier work
[2] = system: Ras processing in ras-transformed NIH3T3; settings: cited from earlier work
Ha-Ras = settings: murine ischemic stroke model; cited from earlier work
[3] = system: membrane-bound Ha-Ras / Ki-Ras; settings: cited from earlier work
tobacco BY-2 cells = settings: cited from earlier work
recombinant human FTase = settings: cited from earlier work
rubber transferase = rubber transferase from Hevea Brasiliensis; cited from earlier work
[4] = system: PBP1b (penicillin-binding protein 1b); settings: cited from earlier work
Ras/ERK1/2 pathway = settings: rats; cited from earlier work
yeast FTase = molecular target: T1, yeast FTase (Saccharomyces cerevisiae, UniProt P22007+P29703); assay: Yeast FTase continuous fluorescence assay; format: biochemical; settings: yeast FTase IC50, 27 vs 2
T1 sequence (P29703 1-316): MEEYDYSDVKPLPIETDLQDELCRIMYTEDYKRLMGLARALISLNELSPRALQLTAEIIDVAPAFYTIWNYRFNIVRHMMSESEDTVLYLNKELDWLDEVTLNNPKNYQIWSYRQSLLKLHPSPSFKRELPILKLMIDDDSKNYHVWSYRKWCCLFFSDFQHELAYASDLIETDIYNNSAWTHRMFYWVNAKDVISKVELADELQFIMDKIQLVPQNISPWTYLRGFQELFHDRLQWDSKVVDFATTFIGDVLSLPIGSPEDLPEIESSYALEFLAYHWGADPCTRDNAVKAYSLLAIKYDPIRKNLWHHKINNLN
T1 sequence (P22007 1-431): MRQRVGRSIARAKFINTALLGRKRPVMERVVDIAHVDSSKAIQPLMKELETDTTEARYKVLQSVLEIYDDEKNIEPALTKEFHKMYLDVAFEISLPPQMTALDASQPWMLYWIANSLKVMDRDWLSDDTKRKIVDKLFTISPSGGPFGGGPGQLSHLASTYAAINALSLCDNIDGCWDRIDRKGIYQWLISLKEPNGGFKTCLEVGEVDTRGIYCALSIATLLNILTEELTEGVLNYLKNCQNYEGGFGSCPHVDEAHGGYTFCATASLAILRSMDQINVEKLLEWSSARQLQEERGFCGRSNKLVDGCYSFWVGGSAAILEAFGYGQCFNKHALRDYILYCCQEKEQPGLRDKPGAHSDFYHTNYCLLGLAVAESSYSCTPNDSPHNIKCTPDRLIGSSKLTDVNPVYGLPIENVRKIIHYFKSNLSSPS

dansyl-Gly-Cys-Val-Leu-Ser (Dansyl-GCVLS)
kcat (wild FTase): 0.4 s⁻¹

CCCCCCCCCCCCCCC1=C(C)C(=O)OC1=O [compound 3, chaetomellic anhydride A]
Stability of the cyclic (anhydride) form [1]: unstable

CCCCCCCCCCCCCC/C(C(=O)O)=C(\C)C(=O)O [compound 1, chaetomellic acid A]
Inhibition of Ras processing [2]: did not inhibit
Production of superoxide anion and volume of cerebral necrotic tissue (Ha-Ras): significantly reducing
Effect on membrane-bound Ha-Ras [3]: selectively inhibited
Effect on membrane-bound Ki-Ras [3]: did not alter
Effect on cell cycle progression (tobacco BY-2 cells): specific arrest in the cell cycle
Mode of FTase inhibition towards the acceptor peptide Ras (recombinant human FTase; diacid anion of 1): noncompetitive
Mode of FTase inhibition with respect to farnesyl pyrophosphate (FPP) (recombinant human FTase; diacid anion of 1): highly competitive
Inhibition of rubber biosynthesis in vitro (rubber transferase): able to inhibit
Reduction of PBP1b activity [4]: modest potency
Effect on acute ischemia-reperfusion injury (renal function and histology) (Ras/ERK1/2 pathway): beneficial effect

dansyl-Gly-Cys-Val-Ile-Ala (Dansyl-GCVIA)
kcat (wild FTase): > 0.2 s⁻¹

CCCCCCCCCCCCCC/C(C(=O)O)=C(\C)C(=O)O [compound 2]
IC50 (recombinant human FTase; read-out: IC50 recombinant human FTase, dianionic form): 55 nM

CCCCSCCCCCCCCC/C(C(=O)[O-])=C(\C)C(=O)[O-].[Na+].[Na+] [compound 27, disodium salt of 2-(9-(butylthio)nonyl)-3-methylmaleic acid]
times more potent than ACA (yeast FTase): approximately 5
